The nature of this test: In vitro MRI relaxation properties (relaxivity). The text has this: In vitro MRI of GdNPs and Polymer Modified Gd NPs. In order to provide information about the clinical imaging viability of the polymer modified gold/Gd nanoparticles, as a positive contrast agent, in vitro MRI was employed to determine relaxation properties of the unmodified and polymer modified gold/Gd nanoparticles. Table 1 compares the MRI longitudinal and transverse relaxivities, r1 and r2, respectively, of PNIPAM-modified gold/Gd nanoparticles and gold/Gd unmodified nanoparticles to the clinically employed contrasts agents, gadopentetate dimeglumine (Magnevist®) and gadobenate dimeglumine (Multihance®). […] By taking advantage of these properties, novel theragnostic polymer-modified gold/Gd nanoparticles could be produced and exploited as contrast agents for conventional T1 MR imaging.

SMILES strings stand for the structures.

Regarding `CNC[C@H](O)[C@@H](O)[C@H](O)[C@H](O)CO.CNC[C@H](O)[C@@H](O)[C@H](O)[C@H](O)CO.O=C([O-])CN(CCN(CC(=O)[O-])CC(=O)O)CCN(CC(=O)[O-])CC(=O)O.[Gd+3]` [Magnevist ®, gadopentetate dimeglumine], the “r1 (MRI longitudinal relaxivity)” value was determined as 6.95 mM⁻¹ s⁻¹.
On to `CNC[C@H](O)[C@@H](O)[C@H](O)[C@H](O)CO.CNC[C@H](O)[C@@H](O)[C@H](O)[C@H](O)CO.O=C([O-])CN(CCN(CC(=O)[O-])CC(=O)O)CCN(CC(=O)O)C(COCc1ccccc1)C(=O)[O-].[Gd+3]` (centres unmarked) [Multihance ®, gadobenate dimeglumine], for which the r1 (MRI longitudinal relaxivity) came out at 17.7 mM⁻¹ s⁻¹.

The values are drawn from patent publication US10406111B2, “Gold/lanthanide nanoparticle conjugates and uses thereof” (COLORADO SCHOOL OF MINES, priority 2009, dated 2019).
